Experimental data: paper PMC11062899, “De novo development of small cyclic peptides that are orally bioavailable” (Nature Chemical Biology, 2023)
Square brackets hold non-standard residues; d marks the D form. Peptide text beside a SMILES is read from it. NMeY = CN[C@@H](Cc1ccc(O)cc1)C(=O)O; NMeL = CN[C@@H](CC(C)C)C(=O)O; dNMeL = CN[C@H](CC(C)C)C(=O)O

What was measured:
porcine pepsin = target: T1, porcine pepsin (Sus scrofa, UniProt P00791); assay: Peptide stability in simulated gastric fluid (SGF); format: in vitro ADME; design: remaining at 8 h: dose or concentration left out as unconfirmed; details: pig, simulated gastric fluid (SGF) with porcine pepsin; 8 h, 37 °C, pH 1.2; read-out: Proteolytic stability: SGF (8 h) % remaining
T1 construct: 0.32 g of porcine pepsin (Sigma-Aldrich, P7125) was dissolved under gentle agitation; purchased Sigma-Aldrich P7125
In short: (§1)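 Peptide from a 1 mM DMSO stock was added to fluid pre-warmed at 37 °C. SGF was pH 1.2 NaCl with porcine pepsin (0.32 g per 100 ml), and SIF was pH 6.8 potassium phosphate with porcine pancreatin (1 g per 100 ml). Supernatant peptide was quantified by LC–MS, with residual expressed as T1/T0.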

porcine pancreatin = assay: Peptide stability in simulated intestinal fluid (SIF); format: in vitro ADME; design: remaining at 8 h: dose or concentration left out as unconfirmed; details: pig, simulated intestinal fluid (SIF) with porcine pancreatin; 8 h, 37 °C, pH 6.8; read-out: Proteolytic stability: SIF (8 h) % remaining
In short: as §1

in vivo = details: male, Wistar Han, rat
Experimental: Male Wistar Han rats (250–350 g) obtained at an age of 9–10 weeks from Charles River Laboratories were used for the studies and kept in housing groups of two or three. Experiments were performed at the age of 10–11 weeks. Intravenous (i.v.) administrations were carried out using tail vein injections. Peptides were dissolved in pure DMSO and diluted with 5% Cremophor EL in water (5% DMSO final) at a concentration of 0.5 mg ml^−1. I.v. administration was carried out at a dose of 1 mg kg^−1 body weight via the left lateral tail vein of rats (n = 3) using an Insyte-W 24 G × 0.75 in. (0.7 mm × 19 mm) temporary peripheral venous catheter (BD Biosciences, 381312). Before injecting the peptide solution, a correct placement of the catheter was confirmed by an apparent reflux of blood through the catheter. Orally (p.o.) administrated peptides were dissolved in DMSO and diluted with 10% Cremophor EL in water (5% DMSO final) at a concentration of 1 mg ml^−1 and administrated by oral gavage to rats (n = 3) at a dose of 10 mg kg^−1. Rats used for oral administration were fasted overnight for 14 h and provided access to food again 2 h after administration, whereas access to water was not restricted throughout the whole experimental procedure. Volumes of 100 μl of blood samples were collected via the right lateral tail vein at different timepoints after i.v. or p.o. administration into heparinized tubes (Sarstedt, 20.1282); the samples were stored on ice for up to 4 h; and plasma was obtained by centrifugation at 2,000g for 5 min at 4 °C. A volume of 40 μl of plasma was added to 120 μl of an acetonitrile:water (9:1) solution containing an internal standard (5 μg ml^−1). Samples were vortexed for 10 s and sonicated for 10 min, and precipitated plasma proteins were pelleted by centrifugation at 16,000g for 15 min at 4 °C. Volumes of 120 μl of supernatant were transferred to a new tube, and solvent was evaporated in a rotary vacuum concentrator (RVC 2–33 CDplus IR, Christ) for 2 h at 40 °C. Dried residues were dissolved in 20 μl of a water:acetonitrile (7:3) (v/v) solution, centrifuged at 14,000g for 5 min and analyzed by LC–MS. Peptides were quantified by extracting ion chromatograms corresponding to their respective mass, integrating the area under the peptide peak and calculating the concentrations by normalization to a calibration curve. Calibration curves were prepared by analyzing spiked samples of blood or plasma with known concentrations of peptide. The absolute oral bioavailability was calculated using equation (6).6 F=AUCp.o./AUCi.v.×Dosei.v./Dosep.o.×100 where AUCp.o. and AUCi.v. are calculated from a plasma concentration versus time curve using the linear trapezoidal rule, and Dosei.v. and Dosep.o. are the intravenously or orally administrated amount of peptide in mg kg^−1.

[1] = Metabolic stability in rat liver microsomes (RLMs); details: rat liver microsomes; for half-life at 10 μM / microsomal CLint at 10 μM: rat
[2] = cited from earlier work
[3] = design: method as in PMID 19696042; details: cited from earlier work
[4] = pH 7.4, Metabolic stability: Half life T1/2 (min), RLMs, mean and SD, three measurements
[5] = pH 7.4, Metabolic stability: RLM CL (ul/min/mg), RLMs, mean and SD, three measurements

T1 sequence (P00791 60-385): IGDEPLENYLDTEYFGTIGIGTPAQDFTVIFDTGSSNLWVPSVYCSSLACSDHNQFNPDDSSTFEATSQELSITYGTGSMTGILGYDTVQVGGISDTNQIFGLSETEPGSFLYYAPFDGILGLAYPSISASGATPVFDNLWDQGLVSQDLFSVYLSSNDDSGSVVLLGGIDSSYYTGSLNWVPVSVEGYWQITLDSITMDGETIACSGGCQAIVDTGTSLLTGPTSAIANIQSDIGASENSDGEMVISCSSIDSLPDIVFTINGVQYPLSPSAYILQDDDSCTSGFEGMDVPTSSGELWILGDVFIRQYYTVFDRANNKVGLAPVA

SMILES | remaining at 8 h (porcine pepsin) [%] | remaining at 8 h (porcine pancreatin) [%] | bioavailability (in vivo) [%] | half-life (in vivo; iv) [min] | half-life at 10 μM [1, 4] [min] | microsomal CLint at 10 μM [1, 5] [µL/min/mg] | metabolic clearance in humans [2] | Half Life ([1]; individual replicates R1-R3) [min] | RLM CL ([1]; individual replicates R1-R3, incubation volume 400 ul, protein 0.5 mg/ml) [ul/min/mg protein] | half-life at 10 μM ([1]; pH 7.4, Half Life Mean, mean of R1-R3) [min] | half-life at 10 μM ([1]; pH 7.4, Half Life, individual replicates R1-R3) [min] | microsomal CLint at 10 μM ([1]; pH 7.4, RLM CL Mean, mean of R1-R3) [µL/min/mg] | microsomal CLint at 10 μM ([1]; pH 7.4, RLM CL, individual replicates R1-R3, incubation volume 400 ul, protein 0.5 mg/ml) [µL/min/mg] | oral availability [3] [%]
CC(C)C[C@@H]1NC(=O)[C@H](Cc2ccc(O)cc2)N(C)C(=O)[C@H]2CCCN2C(=O)[C@H](CC(C)C)NC(=O)[C@H](CC(C)C)N(C)C(=O)[C@@H](CC(C)C)N(C)C1=O [1NMe3, reference compound] (cyclo(L[dNMeL][NMeL]L[dP][NMeY])) | 93 ± 12 | 98 ± 6 | 27 ± 4 | 110 | 193 ± 42 | 7.6 ± 1.9 | – | – | – | – | – | – | – | –
COc1ccc([C@@H]2Sc3ccccc3N(CCN(C)C)C(=O)[C@@H]2OC(C)=O)cc1 [Diltiazem, diltiazem, reference compound] | – | – | – | – | 13.4 ± 1.1 | 104 ± 8 | around 15 ml min^−1 kg^−1 | 12.36 | 112.14 | 13.4 | 14.9 | 104 | 93 | –
CCCCCCOC(=O)NC(=N)c1ccc(NCc2nc3cc(C(=O)N(CCC(=O)OCC)c4ccccn4)ccc3n2C)cc1 [dabigatran etexilate] | – | – | – | – | – | – | – | – | – | – | – | – | – | 6.5
